Assay results taken from patent US20120238532A1, “TREATMENT OF HUMAN OSTEOSARCOMA” (CEDARS-SINAI MEDICAL CENTER, priority 2009, published 2012).

Legend:
Organ weight in mice = type: in vivo; conditions: day 35
From the text: (§1) At autopsy, tumors and internal organs including liver, spleen, kidneys were excised, weighed, and then fixed in 10% PBS-buffered formalin and maintained in 70% ethanol. For IHC, fixed tumors and organs were embedded in paraplast (Oxford Labware, St. Louis, Mo.), cut in 6 μm thick sections, and stained with hematoxylin and eosin (HE) for histopathological examination.

Blood counts in mice = type: in vivo; conditions: day 35
Description: Whole blood samples were obtained by submandibular bleeding and serum samples were harvested with serum separator tubes (BD Biosciences). Blood count and serum chemistry results were obtained by the Hemagen Analyst Benchtop Chemistry System (Hemagen Diagnostics, Inc. Columbia, Md.). Colony-forming cell (CFC) assays were performed as previously described (18).

Akt = test: Western blotting, Akt phosphorylation; type: cell-based, human; conditions: MG-63 cells
Description: (§2) Changes in protein level by CuB were checked by Western blotting. […] After 2, 9, and 20 hours of exposure, cells were harvested and immediately lysed with RIPA buffer (Millipore—Upstate, Temecula, Calif.) supplemented with protease inhibitor cocktail (Roche, San Francisco, Calif.), 0.5 mM PMSF (Roche), and 50 mM NaF (Sigma). After 20 minutes of incubation on ice, protein concentrations were measured by Bradford assay with Bio Rad protein assay solution (Bio-Rad, Hercules, Calif.) and samples were adjusted to the same protein concentration. Samples were mixed with 2× Laemmli sample buffer (Bio-Rad) with 5% β-mercaptoethanol (Sigma) and incubated at 95° C. for 10 min to denature the protein. After brief incubation on ice, proteins were separated by SDS-PAGE, transferred to nitrocellulose membrane (Sigma), and blotted with antibodies from either Cell Signaling Technology (Danvers, Mass.) or Santa Cruz Biotechnology (Santa Cruz, Calif.). Target proteins were visualized by Supersignal West Dura Substrate (Thermo-Pierce, Rockford, Ill.). GAPDH protein was used as a loading control.

MG-63 xenografts = test: Immunohistochemistry of xenografts (HE, Ki-67, TUNEL); type: in vivo, mice; conditions: LD-CuB 0.5 mg/kg; day 35
From the text: as §1
For Ki-67 proliferation assay, tumor sections were deparaffinized with xylene and rehydrated through graded ethanol. Endogenous peroxidase activity was blocked with 3% hydrogen peroxide in methanol. […] After incubation, tumor sections were stained with diaminobenzidine (DAB) and counterstained with hematoxylin. Terminal deoxynucleotidyl transferase dUTP nick end labeling (TUNEL) apoptosis assay was performed using ApopTaq Plus Peroxidase In Situ Apoptosis Kit (Millipore) according to the manufacturer's protocol. Percent positive cells in representative microscopic fields were counted using ImageJ (17).

phospho-c-Jun and c-Fos = test: Western blotting, phospho-c-Jun and c-Fos; type: cell-based, human; conditions: MG-63 and SAOS-2 cells
Description: as §2

MG-63 cells = test: Morphological changes (crystal violet staining), MG-63; type: cell-based, human
Description: FIG. 2. (A) Graphical representation of the effect of CuB on MG-63 and SAOS-2 cells. Cells were exposed to CuB at their ED50 (70 nM for MG-63 and 50 nM for SAOS-2 cells). Time-dependent antiproliferative activity of CuB on MG-63 and SAOS-2 cells measured by pulse-exposure experiments. Cells were exposed to CuB for 2, 9, or 20 hours, washed extensively, and cultured in the absence of CuB for an additional 24, 48, and 72 hours. Cell growth was measured by MTT assay. Measurements were repeated in triplicates. Data represent mean±SD. Asterisks (**) represent p<0.001 vs DMSO control by t-test. (B) Morphological changes of MG-63 and SAOS-2 cells after exposure to cucurbitacin B. Cells with normal morphology (top) were compared to rounded cells (middle) and multinucleated cells (bottom). […] Representative cells are shown. 400×; scale bar=50 μm. (C) Graphical representation of G2/M cell cycle arrest after 20 hours of exposure to cucurbitacin B. Cells were stained with propidium iodide (PI) and analyzed by FACS. (D) Graphical representation of apoptosis after 72 hours of exposure to cucurbitacin B. Cells were stained with PI and Annexin V-FITC, and analyzed by FACS.

[1] = test system: human OS cell lines (U2OS, G292, MG-63, HT-161, HOS, SAOS-2, and SJSA); test: MTT assay, dose-response in human OS cell lines; type: cell-based
Description: 7 human OS cell lines (U2OS, G292, MG-63, HT-161, HOS, SAOS-2, and SJSA) were used in the study. Each cell line except HT-161 was obtained from the American Type Culture Collection (ATCC, Rockville, Md.). HT-161 was obtained from Dr. Emil Bogenmann (13). All cell lines were tested and authenticated prior to use according to cell line verification test recommendations by ATCC. OS cell lines were maintained in DMEM medium (Mediatech Inc., Herndon, Va.) supplemented with 10% fetal bovine serum (FBS; Atlanta Biological, Lawrenceville, Ga.) in a humidified incubator at 37° C. supplied with 5% CO2. Only the cells in exponential growth phase were used in the study.
Cell growth and survival were measured by 3-(4,5-dimethylthiazol-2-yl)-2,5-diphenyltetrazolium bromide (MTT) assay. […] After 48 hours of incubation, 10 μl of 5 mg/ml MTT solution (Sigma-Aldrich, St. Louis, Mo.) was added to each well and incubated further for 2 hours. […] For pulse-exposure experiments, MG-63 and SAOS-2 cells were seeded in 96-well plates and exposed to CuB at their ED50. After 2, 9, and 20 hours of exposure, cells were washed twice with PBS and incubated further in CuB-free media. Cell growth was checked by MTT assay at 24, 48, and 72 hours.

## CC(=O)OC(C)(C)/C=C/C(=O)[C@](C)(O)[C@H]1[C@H](O)C[C@@]2(C)[C@@H]3CC=C4[C@H](C[C@H](O)C(=O)C4(C)C)[C@]3(C)C(=O)C[C@]12C [CuB, cucurbitacin B]
Organ weight in mice; HD-CuB 1.0 mg/kg
  Kidney organ weight: 370 ± 1 mg
  Liver organ weight: 1260 ± 141 mg
  Spleen organ weight: 110 ± 1 mg
Organ weight in mice; LD-CuB 0.5 mg/kg
  Kidney organ weight: 360 ± 1 mg
  Liver organ weight: 1250 ± 60 mg
  Spleen organ weight: 117 ± 6 mg
Blood counts in mice; HD-CuB 1.0 mg/kg
  Basophils: 0.05 ± 0.07 K/μl
  Eosinophils: 0.15 ± 0.07 K/μl
  Hb: 10.10 ± 0.42 g/dL
  Lymphocytes: 2.90 ± 0.71 K/μl
  Monocytes: 0.35 ± 0.07 K/μl
  Neutrophills: 2.10 ± 0.42 K/μl
  Platelets: 651 ± 52.33 K/μl
  RBCs: 7.78 ± 0.45 M/μl
  WBCs: 5.55 ± 1.34 K/μl
Blood counts in mice; LD-CuB 0.5 mg/kg
  Basophils: 0.00 ± 0.00 K/μl
  Eosinophils: 0.01 ± 0.01 K/μl
  Hb: 9.60 ± 0.85 g/dL
  Lymphocytes: 2.63 ± 0.24 K/μl
  Monocytes: 0.18 ± 0.03 K/μl
  Neutrophills: 1.42 ± 0.30 K/μl
  Platelets: 742 ± 115.97 K/μl
  RBCs: 7.21 ± 1.00 M/μl
  WBCs: 4.23 ± 0.04 K/μl
Akt
  Akt phosphorylation at S473: Inhibition of Akt phosphorylation at S473 was observed in MG-63 cells
MG-63 xenografts
  HE-stained tumors: decreased tumor area and smaller blood vessels
phospho-c-Jun and c-Fos
  phospho-c-Jun level and c-Fos expression: Decreased level of phospho-c-Jun and subsequent decrease in c-Fos expression
MG-63 cells; 2 hour exposure
  morphological changes: Rapid loss of pseudopodia and rounding
MG-63 cells; 9 hour-exposure
  morphological changes: multinuclearity which was not reversed by CuB removal
[1]
  cytotoxic activity in human OS cells: dose- and time-dependent
